Measured values taken from PubChem BioAssay (NCI).
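Assay format: 96-well plates, 48-hour exposure. GI50 is the concentration that inhibits growth by half. At the TGI there is no net growth.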

Experiments:
Assay in all cases: growth of human tumour cells (NCI), 48 h
[1] = tested on: ACHN renal
[2] = tested on: SNB-19 CNS
[3] = tested on: SF-268 CNS
[4] = tested on: OVCAR-4 ovarian
[5] = tested on: BT-549 breast
[6] = tested on: KM12 colon
[7] = tested on: HS 578T breast
[8] = tested on: SR leukemia
[9] = tested on: NCI-H226 lung
[10] = tested on: CAKI-1 renal
[11] = tested on: LOX IMVI melanoma
[12] = tested on: SW-620 colon
[13] = tested on: RXF 393 renal
[14] = tested on: HT29 colon
[15] = tested on: MALME-3M melanoma
[16] = tested on: OVCAR-3 ovarian
[17] = tested on: A549 NSCLC
[18] = tested on: SK-MEL-5 melanoma
[19] = tested on: OVCAR-8 ovarian
[20] = tested on: MDA-MB-435
[21] = tested on: COLO 205 colon
[22] = tested on: A498 renal
[23] = tested on: UACC-62 melanoma
[24] = tested on: U251 CNS
[25] = tested on: SF-539 CNS
[26] = tested on: T-47D breast
[27] = tested on: HOP-92 NSCLC
[28] = tested on: DU-145 prostate
[29] = tested on: PC-3 prostate
[30] = tested on: OVCAR-5 ovarian
[31] = tested on: IGROV1 ovarian
[32] = tested on: NCI-H460 lung
[33] = tested on: EKVX NSCLC
[34] = tested on: TK-10 renal
[35] = tested on: NCI-H522 lung
[36] = tested on: 786-0 renal
[37] = tested on: HOP-62 NSCLC
[38] = tested on: SK-MEL-2 melanoma
[39] = tested on: SNB-75 CNS
[40] = tested on: HCC-2998 colon
[41] = tested on: CCRF-CEM leukemia
[42] = tested on: UACC-257 melanoma
[43] = tested on: MDA-MB-231 breast
[44] = tested on: K-562 leukemia
[45] = tested on: UO-31 renal
[46] = tested on: NCI-H23 lung
[47] = tested on: NCI/ADR-RES ovarian
[48] = tested on: MCF7 breast
[49] = tested on: RPMI-8226 leukemia
[50] = tested on: HL-60(TB) leukemia
[51] = tested on: SN12C renal
[52] = tested on: SF-295 CNS
[53] = tested on: M14 melanoma
[54] = tested on: SK-OV-3 ovarian
[55] = tested on: HCT-15 colon
[56] = tested on: SK-MEL-28 melanoma
[57] = tested on: HCT-116 colon
[58] = tested on: MOLT-4 leukemia

SMILES: CC(C)(C)Nc1nc2c(OCCc3ccccc3)cccn2c1-c1ccc(Cl)cc1
- GI50 [1]: 27.3 µM
- TGI [1]: > 100 µM
- GI50 [2]: 32.3 µM
- TGI [2]: > 100 µM
- GI50 [3]: 27.1 µM
- TGI [3]: > 100 µM
- GI50 [4]: 26.7 µM
- TGI [4]: > 100 µM
- GI50 [5]: 19.6 µM
- TGI [5]: 49.5 µM
- GI50 [6]: 22.2 µM
- TGI [6]: 69.9 µM
- GI50 [7]: 20.8 µM
- TGI [7]: 77.5 µM
- GI50 [8]: 19.3 µM
- TGI [8]: > 100 µM
- GI50 [9]: 18.1 µM
- TGI [9]: 60 µM
- GI50 [10]: 25.1 µM
- TGI [10]: > 100 µM
- GI50 [11]: 17.1 µM
- TGI [11]: 33.3 µM
- GI50 [12]: 28.1 µM
- TGI [12]: > 100 µM
- GI50 [13]: 13.4 µM
- TGI [13]: 35.6 µM
- GI50 [14]: 19.7 µM
- TGI [14]: 53.6 µM
- GI50 [15]: 23.9 µM
- TGI [15]: 59 µM
- GI50 [16]: 16.4 µM
- TGI [16]: 64.8 µM
- GI50 [17]: 24 µM
- TGI [17]: > 100 µM
- GI50 [18]: 17 µM
- TGI [18]: 32.6 µM
- GI50 [19]: 27.1 µM
- TGI [19]: > 100 µM
- GI50 [20]: 30.3 µM
- TGI [20]: > 100 µM
- GI50 [21]: 16.4 µM
- TGI [21]: 34.7 µM
- GI50 [22]: 15.2 µM
- TGI [22]: 62.1 µM
- GI50 [23]: 16 µM
- TGI [23]: 38.3 µM
- GI50 [24]: 18.7 µM
- TGI [24]: 48.7 µM
- GI50 [25]: 18.5 µM
- TGI [25]: 37.8 µM
- GI50 [26]: 17.7 µM
- TGI [26]: > 100 µM
- GI50 [27]: 17.4 µM
- TGI [27]: 67.2 µM
- GI50 [28]: 25 µM
- TGI [28]: > 100 µM
- GI50 [29]: 25.3 µM
- TGI [29]: > 100 µM
- GI50 [30]: 23.7 µM
- TGI [30]: > 100 µM
- GI50 [31]: 25.7 µM
- TGI [31]: > 100 µM
- GI50 [32]: 18.9 µM
- TGI [32]: 50.5 µM
- GI50 [33]: 22.5 µM
- TGI [33]: 86 µM
- GI50 [34]: 25.3 µM
- TGI [34]: 79.5 µM
- GI50 [35]: 16.1 µM
- TGI [35]: 54.3 µM
- GI50 [36]: 19.4 µM
- TGI [36]: 45.2 µM
- GI50 [37]: 20.2 µM
- TGI [37]: 52.8 µM
- GI50 [38]: 12.8 µM
- TGI [38]: 28.8 µM
- GI50 [39]: 17.6 µM
- TGI [39]: > 100 µM
- GI50 [40]: 28.1 µM
- TGI [40]: > 100 µM
- GI50 [41]: 29.9 µM
- TGI [41]: 97.2 µM
- GI50 [42]: 26.4 µM
- TGI [42]: 89.9 µM
- GI50 [43]: 16.7 µM
- TGI [43]: 35 µM
- GI50 [44]: 26.4 µM
- TGI [44]: > 100 µM
- GI50 [45]: 11.3 µM
- TGI [45]: 39.7 µM
- GI50 [46]: 25.3 µM
- TGI [46]: 83.4 µM
- GI50 [47]: 21.6 µM
- TGI [47]: 82.4 µM
- GI50 [48]: 21.1 µM
- TGI [48]: 93.5 µM
- GI50 [49]: 20.8 µM
- TGI [49]: 60.4 µM
- GI50 [50]: 25.7 µM
- TGI [50]: 74.5 µM
- GI50 [51]: 22.4 µM
- TGI [51]: > 100 µM
- GI50 [52]: 24.8 µM
- TGI [52]: 61.8 µM
- GI50 [53]: 26.3 µM
- TGI [53]: 71.2 µM
- GI50 [54]: 24.5 µM
- TGI [54]: 75.7 µM
- GI50 [55]: 17.3 µM
- TGI [55]: 43.1 µM
- GI50 [56]: 27.6 µM
- TGI [56]: > 100 µM
- GI50 [57]: 17.6 µM
- TGI [57]: 43.4 µM
- GI50 [58]: 18.3 µM
- TGI [58]: 95.5 µM
